Data set [1] is described as follows: Drug excretion in Wistar rat urine at 750 mg/kg, po after 72 hrs by HPLC-UV analysis. Format: ADME, organism-based. Set-up: dose 750 mg/kg, route oral. Conditions: in vivo.
Data set [2] can be described thus: Drug excretion in Wistar rat urine at 750 mg/kg, po after 18 to 24 hrs by HPLC-UV analysis. It is filed as ADME, organism-based. Set-up: dose 750 mg/kg, route oral. Conditions: in vivo.
The nature of data set [3]: Drug metabolism in Wistar rat assessed as excretion of 7-methoxy-4-oxo-2-phenyl-4H-chromen-5-yl hydrogen sulfate in urine at 750 mg/kg, po by LC-MS and LC-MS/MS analysis. Format: ADME, organism-based. Set-up: dose 750 mg/kg, route oral. Conditions: in vivo.
Data set [4] is described as follows: Drug excretion in Wistar rat feces at 750 mg/kg, po after 12 to 18 hrs by HPLC-UV analysis. It is filed as ADME, organism-based. Also noted: dose 750 mg/kg, route oral. Conditions: in vivo.
Data set [5] can be described thus: AUC in Wistar rat at 250 mg/kg, po by HPLC analysis. Format: ADME, organism-based. Also noted: dose 250 mg/kg, route oral. The note with it: plasma.
A short description of data set [6]: AUC in Wistar rat at 250 mg/kg, iv by HPLC analysis. It is filed as ADME, organism-based. Also noted: dose 250 mg/kg, route intravenous. The note with it: plasma.
Data set [7] is described as follows: Half life in Wistar rat at 250 mg/kg, po by HPLC analysis. Format: ADME, organism-based. Set-up: dose 250 mg/kg, route oral. Conditions: in vivo.
Data set [8] in a line: Half life in Wistar rat at 250 mg/kg, iv by HPLC analysis. Conditions: Wistar, in vivo. It is filed as ADME, organism-based. Also noted: dose 250 mg/kg, route intravenous.
Data set [9] in a line: Elimination rate constant in Wistar rat at 250 mg/kg, po by HPLC analysis. Also noted: dose 250 mg/kg, route oral. Conditions: in vivo, read-out: Ke (converted). Format: ADME, organism-based.
Data set [10] can be described thus: Elimination rate constant in Wistar rat at 250 mg/kg, iv by HPLC analysis. Also noted: dose 250 mg/kg, route intravenous. The note with it: Wistar, in vivo, read-out: Ke (converted). It is filed as ADME, organism-based.
Data set [11] can be described thus: Clearance in Wistar rat at 250 mg/kg, po by HPLC analysis. It is filed as ADME, organism-based. Set-up: dose 250 mg/kg, route oral. Conditions: in vivo.
The nature of data set [12]: Clearance in Wistar rat at 250 mg/kg, iv by HPLC analysis. It is filed as ADME, organism-based. Also noted: dose 250 mg/kg, route intravenous. The note with it: in vivo.
Data set [13] in a line: Tmax in Wistar rat at 250 mg/kg, po by HPLC analysis. Also noted: dose 250 mg/kg, route oral. The note with it: in vivo. Format: ADME, organism-based.
A short description of data set [14]: Cmax in Wistar rat at 250 mg/kg, po by HPLC analysis. Format: ADME, organism-based. Set-up: dose 250 mg/kg, route oral. Conditions: in vivo.
The test system of data set [15] is Rattus norvegicus. Kind of data set: Volume of distribution in Wistar rat at 250 mg/kg, po by HPLC analysis. Format: ADME, organism-based. Set-up: dose 250 mg/kg, route oral. The note with it: in vivo.
Data set [16] deals with Rattus norvegicus. Kind of data set: Absorption rate constant in Wistar rat at 250 mg/kg, po by HPLC analysis. Conditions: in vivo. It is filed as ADME, organism-based. Set-up: dose 250 mg/kg, route oral.
The nature of data set [17]: Oral bioavailability in Wistar rat at 250 mg/kg by HPLC analysis. Format: ADME, organism-based. The note with it: in vivo.
Data set [18] relates to Liver. In words: AUC (0.083 to 4 hrs) in Wistar rat liver at 750 mg/kg, po by LC-MS/MS analysis. Set-up: time 0.083-4 hr, dose 750 mg/kg, route oral. It is filed as ADME, organism-based. Conditions: in vivo.
Data set [19] concerns Kidney. Kind of data set: AUC (0.083 to 4 hrs) in Wistar rat kidney at 750 mg/kg, po by LC-MS/MS analysis. It is filed as ADME, organism-based. The note with it: in vivo. Set-up: time 0.083-4 hr, dose 750 mg/kg, route oral.
Data set [20] relates to Lung. Kind of data set: AUC (0.083 to 4 hrs) in Wistar rat lung at 750 mg/kg, po by LC-MS/MS analysis. Conditions: in vivo. It is filed as ADME, organism-based. Also noted: time upper 4 hr, time lower 0.083 hr, dose 750 mg/kg, route oral.
Data set [21] relates to Brain. In words: AUC (0.083 to 4 hrs) in Wistar rat brain at 750 mg/kg, po by LC-MS/MS analysis. Conditions: in vivo. Format: ADME, organism-based. Set-up: time 0.083-4 hr, dose 750 mg/kg, route oral.
Data set [22] can be described thus: Cmax in Wistar rat liver at 750 mg/kg, po by LC-MS/MS analysis. Also noted: dose 750 mg/kg, route oral. Format: ADME, organism-based.
Data set [23] can be described thus: Cmax in Wistar rat kidney at 750 mg/kg, po by LC-MS/MS analysis. It is filed as ADME, organism-based. Set-up: dose 750 mg/kg, route oral.
A short description of data set [24]: Cmax in Wistar rat lung at 750 mg/kg, po by LC-MS/MS analysis. Format: ADME, organism-based. Also noted: dose 750 mg/kg, route oral.
A short description of data set [25]: Cmax in Wistar rat brain at 750 mg/kg, po by LC-MS/MS analysis. Also noted: dose 750 mg/kg, route oral. Format: ADME, organism-based.
The nature of data set [26]: Cmax in Wistar rat testes at 750 mg/kg, po by LC-MS/MS analysis. Format: ADME, organism-based, Testis. Set-up: dose 750 mg/kg, route oral.
A short description of data set [27]: Tmax in Wistar rat liver at 750 mg/kg, po by LC-MS/MS analysis. Format: ADME, organism-based. Also noted: dose 750 mg/kg, route oral.
Data set [28] can be described thus: Tmax in Wistar rat kidney at 750 mg/kg, po by LC-MS/MS analysis. Format: ADME, organism-based. Also noted: dose 750 mg/kg, route oral.
The nature of data set [29]: Tmax in Wistar rat lung at 750 mg/kg, po by LC-MS/MS analysis. Format: ADME, organism-based. Also noted: dose 750 mg/kg, route oral.
Data set [30] in a line: Tmax in Wistar rat brain at 750 mg/kg, po by LC-MS/MS analysis. It is filed as ADME, organism-based. Also noted: dose 750 mg/kg, route oral.
Data set [31] in a line: Tmax in Wistar rat testes at 750 mg/kg, po by LC-MS/MS analysis. Also noted: dose 750 mg/kg, route oral. It is filed as ADME, organism-based, Testis.
Data set [32] in a line: Drug metabolism in Wistar rat assessed as excretion of 5,7-dihydroxy-2-phenyl-4H-chromen-4-one in urine/feces at 750 mg/kg, po by LC-MS and LC-MS/MS analysis. It is filed as ADME, organism-based. Also noted: dose 750 mg/kg, route oral. The note with it: in vivo.
A short description of data set [33]: Drug excretion in Wistar rat urine at 750 mg/kg, po after 12 hrs by HPLC-UV analysis. Format: ADME, organism-based. Also noted: dose 750 mg/kg, route oral. The note with it: in vivo.
Data set [34] can be described thus: Drug excretion in Wistar rat feces at 750 mg/kg, po after 12 hrs by HPLC-UV analysis. Format: ADME, organism-based. Conditions: in vivo. Set-up: dose 750 mg/kg, route oral.
Data set [35] is described as follows: Drug metabolism in Wistar rat assessed as excretion of 2-phenyl-5-((2S,3R,4S,5S,6R)-3,4,5-trihydroxy-6-(hydroxymethyl)tetrahydro-2H-pyran-2-yloxy)-4H-chromen-4-one in urine at 750 mg/kg, po by LC-MS and LC-MS/MS analysis. It is filed as ADME, organism-based. Set-up: dose 750 mg/kg, route oral. Conditions: in vivo.
Data set [36] can be described thus: Drug excretion in Wistar rat urine at 750 mg/kg, po after up to 72 hrs by HPLC-UV analysis. Format: ADME, organism-based. Set-up: dose 750 mg/kg, route oral. Conditions: read-out: Drug excretion.
The nature of data set [37]: Drug excretion in Wistar rat feces at 750 mg/kg, po after up to 72 hrs by HPLC-UV analysis. It is filed as ADME, organism-based. Also noted: dose 750 mg/kg, route oral. Conditions: faeces, read-out: Drug excretion.
Data set [38] in a line: AUC (0.083 to 4 hrs) in Wistar rat testes at 750 mg/kg, po by LC-MS/MS analysis. It is filed as ADME, organism-based, Testis. Also noted: time 0.083-4 hr, dose 750 mg/kg, route oral. The note with it: in vivo.
Data set [39] is described as follows: Drug metabolism in Wistar rat urine/feces treated with 750 mg/kg, po of 5,7-dimethoxyflavone by LC-MS and LC-MS/MS analysis. Format: ADME, organism-based. Also noted: dose 750 mg/kg, route oral. Conditions: in vivo.
A short description of data set [40]: Drug metabolism in Wistar rat urine/feces treated with 750 mg/kg, po of 5,7,4'-trimethoxyflavone by LC-MS and LC-MS/MS analysis. The note with it: in vivo. It is filed as ADME, organism-based. Set-up: dose 750 mg/kg, route oral.
Data set [41] can be described thus: Drug metabolism in Wistar rat urine/feces treated with 750 mg/kg, po of 3,5,7,3',4'-pentamethoxyflavone by LC-MS and LC-MS/MS analysis. Format: ADME, organism-based. Set-up: dose 750 mg/kg, route oral. The note with it: in vivo.

Regarding `COc1cc(OC)c2c(=O)cc(-c3ccccc3)oc2c1` [CHRYSIN DIMETHYL ETHER], the Drug excretion entry in data set [1] is “metabolite_not_detected”; in data set [2], “Active”; in [4] it was “Active”; in [33] it was “Active”; in data set [34] it was “Active”. Moreover, the Drug metabolism result in data set [3], in data set [32] and in data set [35] was “metabolite_detected” in each case. For the same compound, the AUC amounted to 7.01 µg·h/mL in data set [5]; 233 µg·h/mL in [6]; 8.6 µg·h/g in data set [18]; 2.51 µg·h/g in data set [19]; 2.17 µg·h/g in [20]; 1.91 µg·h/g in data set [21]. In addition, in [38], the AUC came out at 1.9 µg·h/g. In addition, the half-life in [7] was 5.85 h; in data set [8], 3.75 h. Also, the k el is 3.61e-05 s⁻¹ in data set [9] and 8.89e-05 s⁻¹ in data set [10]. This compound had an apparent clearance CL/F in data set [11] of 6.12 mL/min. The compound further had a clearance in [12] of 0.133 mL/min. For the same compound, the Tmax in data set [13] is 0.76 h; in [27] it was 2.57 h; in [28], 3.43 h; in [29], 1.2 h; in data set [30] it was 3.14 h; in [31] it was 2.86 h. In addition, the Cmax in data set [14] amounted to 780 ng/mL; in data set [22] it was 3850 ng/g; in data set [23], 1330 ng/g; in data set [24], 2000 ng/g; in [25], 960 ng/g; in data set [26] it was 910 ng/g. The Vd in [15] came out at 2957.53 mL. The ka in [16] amounted to 8.69 h⁻¹. For the same compound, the bioavailability in data set [17] turned out to be 2.1%. The dose excreted at 72 h worked out at 0.96% in [36] and 3.1% in data set [37].

For the compound `O=c1cc(-c2ccccc2)oc2cc(O)cc(O)c12` [CHRYSIN], in [39], the Drug metabolism entry is “metabolite_detected”.

For `COc1cc(O)c2c(=O)cc(-c3ccc(O)cc3)oc2c1` [GENKWANIN], the Drug metabolism entry in [40] was “metabolite_detected”.

In the case of `COc1cc(O)c2c(=O)c(O)c(-c3ccc(OC)c(O)c3)oc2c1` [OMBUINE], the Drug metabolism result in data set [41] is recorded as “metabolite_detected”.

The term half-life denotes the time needed for the level to fall by half in the phase considered. High values mean slow loss, low ones fast loss. Usually CL/F stands for clearance divided by bioavailability, as obtained after extravascular dosing. The term clearance denotes a measure of how efficiently the substance is removed, as volume per time. Read a low clearance as inefficient removal. A word on the Tmax: it is the time from dosing to the highest level. As a reminder, the Cmax is the maximum level reached in the sampled fluid or tissue. Broadly, the bioavailability is the share of a dose that reaches the circulation, judged against a reference dose that is usually intravenous. Lower therefore signals poor availability.

For the origin of these results see ChEMBL document CHEMBL3526121, “Pharmacokinetics, bioavailability, tissue distribution, excretion, and metabolite identification of methoxyflavones in Kaempferia parviflora extract in rats” (Drug Metab Dispos, 2012).
